Assay results from patent publication US20090093538A1, “Method for treating cancer” (priority 2007, published 2009).

Legend:
Format in all cases: cell-based, human
[1] = system: Hs294T (or MDA-MB-435) cells; test: Affymetrix transcriptional profiling; settings: 100 nM, 6 hours
Experimental: RNA was isolated from the cells 6 hours after treatment using the RNeasy kit according to the manufacturers instructions (Qiagen Cat. # 71404) and RNA quality was confirmed by spectrophotometric examination. cDNA was synthesized using the One-Cycle cDNA Synthesis Kit (Affymetrix Cat. # 900431) according to the manufacturers instructions. cDNA was labeled using the GeneChip IVT Labeling Kit (Affymetrix Cat. #900449) and analyzed in duplicate on the Affymetrix Human Genome U133Plus 2.0 gene chip array according to standard Affymetrix protocols. Data sheets from the Affymetrix Gene Chip Scanner 3000 were imported into Microsoft Excel and filtered by the following criteria: greater than or equal to 1.5 fold increase, greater than or equal to 0.4SE between replicates; and 50 (low stringency) or 500 (high stringency) for the lowest signal.
NAC is the rate-limiting amino acid for the production of the antioxidant glutathione. Addition of NAC to cells increases the levels of endogenous glutathione which in turn blocks oxidative stress and ROS generation. […] RNA was isolated from the cells 6 hours after treatment and Affymetrix analysis was performed as above.

MDA-MB-435 cells [2] = test: Cell viability (Cell Counting Kit-8); settings: Homo sapiens, MDA-MB-435; 500 nM, 72 hours post-drug treatment; read-out: reduction of cell viability
Experimental: The cells were further cultured at 37° C. for 72 hours and cell viability was measured with Cell Counting Kit-8 (Dojindo Laboratories, Cat# CK04).

Hsp70 [3] = test: Cell surface expression of Hsp70, HT29 cells (confocal microscopy); settings: HT29, 500 nM, 6 hrs
Experimental: After treatment, cells were rinsed one time in PBS then fixed in 2% Paraformaldehyde at room temperature for 20 minutes. Slides with the fixed cells were rinsed with PBS two times. Primary antibody mouse monoclonal anti-Hsp70 (Stressgen SPA-8 10) was diluted 1:100 in PBS and the slides were incubated 1 hour at 37° C. The slides were rinsed two times with PBS. Secondary antibody anti-mouse AlexaFluor 488 (Molecular Probes A-11001) was diluted 1:500 in PBS and the slides were incubated 30 min at 37° C. The slides were rinsed two times in PBS. DAPI (Molecular Probes D-3571) were diluted 1:10,000 in PBS and the slides were incubated at room temperature in dark for 5 min. The slides were rinsed two times in PBS, then once in deionized water and left to dry in dark until almost completely dry. Coverslips were mounted with Prolong Anti-fade Mounting Media (Molecular Probes P-748 1). The images were captured with a monochrome CCD camera SenSys (see FIGS. 27A-D and 28A-D) or by confocal microscopy (see FIG. 29A-E). In FIGS. 27A-D and 28A-D, the bright pink color on the surface of the MCF-7 cells (FIG. 27A-D) or CEM cells (FIG. 28A-D) indicates Hsp70 on the surface of the cells. In FIG. 29A-E the bright green color on the surface of the cell indicates Hsp70 on the surface of the HT29 cells.

Hsp70 [4] = test: Hsp70 RNA induction, quantitative PCR, Hs294T cells; settings: 100 nM
Experimental: […] 500 ng of RNA from each sample was used for cDNA synthesis using iScript cDNA Synthesis Kit (Biorad, Cat# 170-8891). 1 uL of cDNA mixture was used with the iQ SYBR Green Supermix (Biorad, Cat# 170-8882) to perform quantitative PCR in an iCycler machine (Biorad) using standard protocols. QPCR for each sample/time point was performed in duplicate. The following primers for inducible human Hsp70 and gapdh were used:
Ct values were obtained from the iCycler program and used in an equation (2^−ΔΔCT) for determining the amount of target relative to gapdh expression. This compares the relative expression of Hsp70 to the corresponding levels of gapdh in each sample. Duplicate wells were averaged and graphed with their corresponding standard deviation.
Activation of HSF-1 by oxidative stress has been reported in the literature to require p38 kinase signaling in some cell lines.

p38 kinase = test: p38 phosphorylation, Western blot, MDA-MB-435 cells; settings: 10, 50, 100, 500 or 1000 nM, 4 hours
Experimental: After treatment the cells were lysized and used for Western blot analysis.
Samples were run on a SDS-PAGE gel and proteins were transferred onto a nitrocellulose membrane by a semi-dry transfer. Nitrocellulose was blocked with 5% skim milk in TBS with 0.5% Tween at room temperature for 1 hour and then probed with anti-phospho-p38 (Cell Signaling, #9216) antibody. The nitrocellulose was then probed with secondary antibodies, HRP-conjugated goat anti-rabbit IgG and HRP-conjugated horse anti-mouse IgG (#7074, #7076, Cell Signaling). LumiGLO reagent, 20× Peroxide (#7003, Cell Signaling) was used to visualize gel (see FIG. 35).

MDA-MB-435 cells [5] = test: Lysis of target cells by mouse splenocytes (MTS assay); settings: 0.1 or 0.5 μM, about 15 hours, splenocytes 10:1, 24 hours
Experimental: (§1) MDA-MB-435 cells were purchased from American Type culture collection. Human mammary epithelial (HMEC), human renal epithelial (HRE) cells and medium for maintaining the cells were obtained from Cambrex Bioproducts. Mouse splenocytes were isolated form CD1 nude mice (Jackson Lab). […] Mouse splenocytes were isolated from Nude mice and mixed with MDA-MB-435, HMEC and HRE cells at ratio of 10:1. The mixed cells were incubated at 37° C. for 24 hours in the tissue culture medium and MTS assay was performed to measure viability of the cells with an ELISA reader (DYNEX Technologies). Cytotoxicity (C) was calculated based on an equation below: C=[1-([…])]×100%

HMEC and HRE cells = test: as above; settings: non-cancerous HMEC and HRE cells; 0.1 or 0.5 μM, about 15 hours; splenocytes 10:1, 24 hours
Experimental: as §1

## CN(NC(=O)CC(=O)NN(C)C(=S)c1ccccc1)C(=S)c1ccccc1 [Compound 1]
[1]
  increase in transcription of Hsp70: over 300 fold
[1]; Hs294T melanoma cells
  induction of heat shock and metallothionein genes: robustly induced heat shock and metallothionein genes
[1]; MDA-MB-435 cells
  gene expression profile (heat shock proteins, metallothioneins, antioxidants): induces an oxidative stress signature profile
MDA-MB-435 cells [2]
  cytotoxicity at 0.5 µM: ~90%
Hsp70 [3]
  Hsp70 on the surface of cells: bright green color on the surface of the cells indicating Hsp70
Hsp70 [4]; 3 hours
  Hsp70 RNA expression induction: 3.9 fold
Hsp70 [4]; 6 hours
  Hsp70 RNA expression induction: 8.3 fold
p38 kinase
  phosphorylation and activation of p38 kinase: induces the phosphorylation and activation of p38 kinase in a dose dependent manner
MDA-MB-435 cells [5]
  increase in lysis compared to cells treated with DMSO alone: about 15%
HMEC and HRE cells
  increase in lysis compared to cells treated with DMSO alone: only slightly increased
